From patent US20200172473A1, “DUAL MODULATORS OF FARNESOID X RECEPTOR AND SOLUBLE EPOXIDE HYDROLASE” (JOHANN WOLFGANG GOETHE-UNIVERSITÄT FRANKFURT AM MAIN, priority 2017, published 2020)

Tests used:
FXR target genes = experiment: FXR target gene mRNA quantification from mouse livers; assay type: in vivo; conditions: 10 mg/kg p.o., 8 h post dose
Description: Three additional animals served as vehicle control.
A part of the blood was centrifuged (6000 rpm, 10 min, +4° C.) to obtain plasma for quantification of EET/DHET ratio and stored at −80° C. until further evaluation. For liver collection, mice were sacrificed by cervical dislocation after the last blood sampling (8 h post dose). Complete liver was immediately snap-frozen and stored at −80° C. until further evaluation. Plasma and liver were equally obtained from three control mice which received oral application of the vehicle (1% HPMC/Tween 80 (99:1)).
Quantification of FXR target gene mRNA from mouse livers: Hepatocyte isolation of mouse liver tissue for RT-qPCR: To homogenize the liver samples, one third of each liver was placed on one Falcon™ Cell Strainer with 40 μm pore size (BD Bioscience, Erembodegem, Belgium) in a 50 mL Falcon tube. Every tissue was rinsed with PBS buffer containing 10% FCS and 1% PenStrep and pressed through the cell strainer until 5 mL cell suspension had been collected. The samples were centrifuged at 1200 rpm for to min at 4° C. The supernatant was discarded and the pellets were washed with 5 mL cold PBS buffer and again centrifuged at 1200 rpm for 10 min at 4° C. After discarding the supernatant, the cell pellets were re-suspended in 1 mL PBS and total RNA was extracted using the E. Z. A. Total RNA Kit I (Omega bio-tek Inc., Narcoss, Ga., USA) following the Animal Tissue Protocol. The extracted RNA was used for qRT-PCR and equally treated as described for mRNA quantification from HepG2 cells (see above). PCR primers for the murine genes are listed in the supporting information.

PPARα = molecular target: T1, PPARα (Homo sapiens, UniProt Q07869); experiment: Gal4-hybrid reporter gene assay PPARα in HEK293T cells; assay type: cell-based; conditions: 10 μM
T1 construct: pFA-CMV-hPPARα-LBD; expressed in transfected cells; host or cells: HEK293T
T1 sequence (Q07869 239-466 limits assumed): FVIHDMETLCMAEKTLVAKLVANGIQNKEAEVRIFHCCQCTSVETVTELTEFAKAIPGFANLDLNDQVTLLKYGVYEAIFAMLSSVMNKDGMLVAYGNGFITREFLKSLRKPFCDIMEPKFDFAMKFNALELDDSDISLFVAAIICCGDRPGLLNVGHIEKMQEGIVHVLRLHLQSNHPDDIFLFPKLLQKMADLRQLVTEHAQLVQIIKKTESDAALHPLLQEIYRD
Excerpt: Hybrid reporter gene assays for PPARα/γ/δ, LXRα/β, RXRα/β/γ, RARα/β/γ, VDR and PXR Plasmids: The Gal4-fusion receptor plasmids pFA-CMV-hPPARα-LBD^52, pFA-CMV-hPPARγ-LBD^52, pFA-CMV-hPPARδ-LBD^52, pFA-CMV-hLXRα-LBD^32 and pFA-CMV-hLXRβ-LBD^32 have been reported previously. […] Frame and sequence of all fusion receptors were verified by sequencing. pFR-Luc (Stratagene) was used as reporter plasmid and pRL-SV40 (Promega) for normalization of transfection efficiency and cell growth.
Assay procedure: HEK293T cells were grown in DMEM high glucose, supplemented with 10% FCS, sodium pyruvate (1 mM), penicillin (100 U/mL) and streptomycin (100 μg/mL) at 37° C. and 5% CO2. The day before transfection, HEK293T cells were seeded in 96-well plates (2.5·10^4 cells/well). Before transfection, medium was changed to Opti-MEM without supplements. Transient transfection was carried out using Lipofectamine LTX reagent (Invitrogen) according to the manufacturer's protocol with pFR-Luc (Stratagene), pRL-SV40 (Promega) and pFA-CMV-hRXRα-LBD. 5 h after transfection, medium was changed to Opti-MEM supplemented with penicillin (100 U/mL), streptomycin (100 μg/mL), now additionally containing 0.1% DMSO and the respective test compound or 0.1% DMSO alone as untreated control. […] Luminescence was measured with an Infinite M200 luminometer (Tecan Deutschland GmbH). […]

CC(C)(C)c1ccc(C(=O)NCc2ccc(NS(C)(=O)=O)cc2Cl)cc1 [compound 57, 4-(tert-Butyl)-N-(2-chloro-4-(methylsulfonamido)benzyl)benzamide] was tested, and the “increased expression of BSEP in mouse liver” value (FXR target genes) was “approx. 3 fold”, the “increased expression of FGF15 in mouse liver” value (FXR target genes) was “approx. 2.5 fold” and the “increased expression of SHP in mouse liver” value (FXR target genes) was “approx. 4 fold”. For the same compound, the “reduced SREBP1c levels in mouse liver” value (FXR target genes) was “approx. 5 fold”, the “SREBP1c mRNA in mouse liver compared to vehicle set as 100%” value (FXR target genes; vehicle 82±14) was 17±10% and the “BSEP mRNA in mouse liver compared to vehicle set as 100%” value (FXR target genes; vehicle 105±24) was 312±103%. The “SHP mRNA in mouse liver compared to vehicle set as 100%” value (FXR target genes; vehicle 108+29) was 410±147%, the “FGF15 mRNA in mouse liver compared to vehicle set as 100%” value (FXR target genes; vehicle 119±15) was 254±9% and the “activity on PPARα” value (PPARα) was “inactive”.
